Measured values published in patent publication US20170246235A1, “GREEN TEA COMPOSITIONS” (priority 2014, published 2017).
Like-named read-outs stand apart in the source and are kept apart here.

How the values were obtained:
α-amylase = conditions: cited from earlier work; for inhibition of α-amylase: at a concentration of 20 μM
[1] = after oral green tea extract; cited from earlier work
[2] = meta-analysis of 97 studies, Manach et al. (2005); cited from earlier work
P. falciparum = experiment: Parasite growth measured by radiolabeled hypoxanthine uptake; format: cell-based, Plasmodium falciparum
Procedure: Growth was measured by hypoxanthine uptake using radiolabeled hypoxanthine. […] ([…]) indicates rep. […] Graphpad Prism 6 software was used to analyse the data using the equation for log(inhibitor) vs. normalized response (variable slope).
This example was carried out to determine the parasiticidal efficacy of Phytofare® green tea extract containing catechins. The extract was resuspended in water to give a stock concentration of 58 mg/ml. Parasite growth was measured by hypoxanthine uptake using radiolabeled hypoxanthine as described (Slavic, K. et al., Mol. Biochem. Parasitol. 168:113-116, 2009). […] Each experiment included five technical replicates, and a total of three biological replicates were carried out.
The assay was repeated to obtain the IC50 values for pure caffeine, and for Epigallocatechin Gallate (EGCG) which is present in the extract, obtained from a different source. The concentration ranges used were 352.44 μM to 0.69 μM for caffeine, and 371.01 μM to 0.73 μM for EGCG. These concentrations reflect the molar concentrations present at the highest concentration (μg/ml) of extract used.

HIV-1 integrase = biological target: T1, HIV-1 integrase (Human immunodeficiency virus type 1 group M subtype B, UniProt P04585); conditions: cited from earlier work
T1 construct: Full-length recombinant HIV-1 integrase protein (200 nM, purified from bacteria); literature Express Biotech International; host or cells: bacteria

breast cancer cells = conditions: cited from earlier work
MMP2 = conditions: cited from earlier work
MMP9 = conditions: cited from earlier work
[3] = cited from earlier work

Oc1cc(O)c2c(c1)O[C@H](c1cc(O)c(O)c(O)c1)[C@H](O)C2 [EGC, epi-gallocatechin]
inhibition of α-amylase (α-amylase): 13% | area-under-curve, aqueous humor [1]: 2.035 ± 0.5317 µM·h | concentration in aqueous humor [1]: 602.9 ± 116.7 nM | elimination half-life [2]: 2.3 ± 0.2 h

Cn1c(=O)c2c(ncn2C)n(C)c1=O [caffeine]
inhibition by caffeine alone (P. falciparum; even at 352.44 μM): no inhibition | IC50, rep. 1 (P. falciparum; independent IC50 assay rep. 1): no calculable IC50 values | IC50, rep. 2 (P. falciparum; independent IC50 assay rep. 2): no calculable IC50 values | IC50, rep. 3 (P. falciparum; independent IC50 assay rep. 3): no calculable IC50 values

Oc1cc(O)c2c(c1)O[C@H](c1ccc(O)c(O)c1)[C@H](O)C2 [epicatechin]
elimination half-life [2]: 2.5 ± 0.4 h

Oc1cc(O)c2c(c1)O[C@H](c1cc(O)c(O)c(O)c1)[C@@H](O)C2 [gallocatechin]
area-under-curve, retina [1]: 207,000 pmol×h/g | highest concentration in the retina [1]: 22729.4 ± 4229.4 pmol/g

epigallocatechin-3-gallate [EGCG]
IC50 (P. falciparum; ± S.E.M., read-out: IC50, means of the three independent experiments): 80.8 µM | effect on Km of α-amylase (α-amylase; 50 μM EGCG, p=0.1): did not significantly affect | Vmax of α-amylase (α-amylase; 50 μM EGCG, reduced from 323.3): 206.1 product/min/mg protein | inhibition of α-amylase (α-amylase): 34% | IC50 for HIV-1 integrase (HIV-1 integrase): slightly higher than Raltegravir | inhibition of invasion by breast cancer cells (breast cancer cells; 20 μg/ml in the media): about 26% | inhibition of invasion by breast cancer cells (breast cancer cells; 50 μg/ml in the media): ~100% | production of MMP2 (MMP2; 20 ug/ml in the media): reduced | activity of MMP2 (MMP2; 50 μg/ml and 100 ug/ml): completely inhibited | production of MMP9 (MMP9; 20 ug/ml in the media): completely inhibited | activity of MMP9 (MMP9; 50 μg/ml and 100 ug/ml): completely inhibited | cellular toxicity to the corneal epithelium ([3]; 0.01% or 0.1% EGCG): No cellular toxicity | decrease in corneal fluorescein staining compared with the vehicle ([3]; topical 0.1% EGCG): 24.6% | decrease in corneal fluorescein staining compared with untreated controls ([3]; topical 0.1% EGCG): 41.9% | decrease in number of CD11b+ cells, central cornea, compared with the vehicle ([3]; topical 0.1% EGCG): 26.1% | decrease in number of CD11b+ cells, peripheral cornea, compared with the vehicle ([3]; topical 0.1% EGCG): 23.3% | elimination half-life [2]: 3.5 ± 0.3 h
